Reference: article PMC7254991, “Design and validation of fibroblast activation protein alpha targeted imaging and therapeutic agents” (Theranostics, 2020)

Target: T1, fibroblast activation protein alpha (FAP) (Homo sapiens, UniProt Q12884)
T1 construct: human FAP expressed on HEK293 cells (HEK293-hFAP)
T1 sequence (Q12884 1-760): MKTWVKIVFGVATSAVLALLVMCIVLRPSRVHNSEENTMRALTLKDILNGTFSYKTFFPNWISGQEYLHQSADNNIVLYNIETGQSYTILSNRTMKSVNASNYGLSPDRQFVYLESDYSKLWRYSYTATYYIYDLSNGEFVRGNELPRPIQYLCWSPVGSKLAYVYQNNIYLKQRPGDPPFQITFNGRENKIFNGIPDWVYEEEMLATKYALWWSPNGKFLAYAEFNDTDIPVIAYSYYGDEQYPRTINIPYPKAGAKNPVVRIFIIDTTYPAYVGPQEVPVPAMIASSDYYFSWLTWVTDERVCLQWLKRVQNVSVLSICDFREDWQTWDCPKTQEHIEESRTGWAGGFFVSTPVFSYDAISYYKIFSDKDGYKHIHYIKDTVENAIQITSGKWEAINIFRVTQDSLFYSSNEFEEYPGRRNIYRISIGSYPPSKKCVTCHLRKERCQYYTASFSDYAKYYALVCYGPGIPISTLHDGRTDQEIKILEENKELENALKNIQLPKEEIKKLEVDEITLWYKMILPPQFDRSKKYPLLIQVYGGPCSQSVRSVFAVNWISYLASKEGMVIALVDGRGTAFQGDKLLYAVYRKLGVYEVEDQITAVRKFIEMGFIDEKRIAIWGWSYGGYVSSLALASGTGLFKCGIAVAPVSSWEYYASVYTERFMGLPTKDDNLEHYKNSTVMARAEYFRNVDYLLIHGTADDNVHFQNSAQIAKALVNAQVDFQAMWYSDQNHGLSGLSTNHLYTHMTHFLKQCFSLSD
Test: competition (excess unlabeled FL) against FL-L1-FITC, FL-L1-S0456 and […]mTc-FL-L3 binding on HEK293-hFAP cells
Assay type: cell-based

**Q.** With `C[C@H](NC(=O)c1ccnc(CN)c1)C(=O)N1CC(F)(F)C[C@H]1C#N` [compound 8, FL] as the molecule, how does the “competition (excess unlabeled FL) against FL-L1-FITC, FL-L1-S0456 and 99mTc-FL-L” value read?
**A.** The value was “Blocking of FL-L1-FITC related fluorescence by unlabeled FAP ligand (FL), indicated FAP mediated uptake of FL-L1-FITC in HEK293-hFAP cells”.
